Data taken from patent publication US12187742B2 (XRAD Therapeutics, Inc., priority 2018, dated 2025).
Structures can show the parent of a compound that is named as a salt.

molecular target: ATM (Homo sapiens (Human), UniProt Q13315); assay: ATM in Cell Western Assay (pKAP1 in etoposide-treated MCF-7 cells); assay type: cell-based; settings: MCF-7 cells, etoposide 100 μM, 1 hr, pKAP1 readout
Procedure, shortened: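 Cells received compounds in a 10-dose, 3-fold series from a 1 μM final top concentration, then 100 μM etoposide, for 1 hr at 37° C. They were then fixed with paraformaldehyde and permeabilized with 0.1% Triton X-100. After immunostaining, plates were scanned on an infrared imager.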

Chain of ATM (Q13315 whole entry): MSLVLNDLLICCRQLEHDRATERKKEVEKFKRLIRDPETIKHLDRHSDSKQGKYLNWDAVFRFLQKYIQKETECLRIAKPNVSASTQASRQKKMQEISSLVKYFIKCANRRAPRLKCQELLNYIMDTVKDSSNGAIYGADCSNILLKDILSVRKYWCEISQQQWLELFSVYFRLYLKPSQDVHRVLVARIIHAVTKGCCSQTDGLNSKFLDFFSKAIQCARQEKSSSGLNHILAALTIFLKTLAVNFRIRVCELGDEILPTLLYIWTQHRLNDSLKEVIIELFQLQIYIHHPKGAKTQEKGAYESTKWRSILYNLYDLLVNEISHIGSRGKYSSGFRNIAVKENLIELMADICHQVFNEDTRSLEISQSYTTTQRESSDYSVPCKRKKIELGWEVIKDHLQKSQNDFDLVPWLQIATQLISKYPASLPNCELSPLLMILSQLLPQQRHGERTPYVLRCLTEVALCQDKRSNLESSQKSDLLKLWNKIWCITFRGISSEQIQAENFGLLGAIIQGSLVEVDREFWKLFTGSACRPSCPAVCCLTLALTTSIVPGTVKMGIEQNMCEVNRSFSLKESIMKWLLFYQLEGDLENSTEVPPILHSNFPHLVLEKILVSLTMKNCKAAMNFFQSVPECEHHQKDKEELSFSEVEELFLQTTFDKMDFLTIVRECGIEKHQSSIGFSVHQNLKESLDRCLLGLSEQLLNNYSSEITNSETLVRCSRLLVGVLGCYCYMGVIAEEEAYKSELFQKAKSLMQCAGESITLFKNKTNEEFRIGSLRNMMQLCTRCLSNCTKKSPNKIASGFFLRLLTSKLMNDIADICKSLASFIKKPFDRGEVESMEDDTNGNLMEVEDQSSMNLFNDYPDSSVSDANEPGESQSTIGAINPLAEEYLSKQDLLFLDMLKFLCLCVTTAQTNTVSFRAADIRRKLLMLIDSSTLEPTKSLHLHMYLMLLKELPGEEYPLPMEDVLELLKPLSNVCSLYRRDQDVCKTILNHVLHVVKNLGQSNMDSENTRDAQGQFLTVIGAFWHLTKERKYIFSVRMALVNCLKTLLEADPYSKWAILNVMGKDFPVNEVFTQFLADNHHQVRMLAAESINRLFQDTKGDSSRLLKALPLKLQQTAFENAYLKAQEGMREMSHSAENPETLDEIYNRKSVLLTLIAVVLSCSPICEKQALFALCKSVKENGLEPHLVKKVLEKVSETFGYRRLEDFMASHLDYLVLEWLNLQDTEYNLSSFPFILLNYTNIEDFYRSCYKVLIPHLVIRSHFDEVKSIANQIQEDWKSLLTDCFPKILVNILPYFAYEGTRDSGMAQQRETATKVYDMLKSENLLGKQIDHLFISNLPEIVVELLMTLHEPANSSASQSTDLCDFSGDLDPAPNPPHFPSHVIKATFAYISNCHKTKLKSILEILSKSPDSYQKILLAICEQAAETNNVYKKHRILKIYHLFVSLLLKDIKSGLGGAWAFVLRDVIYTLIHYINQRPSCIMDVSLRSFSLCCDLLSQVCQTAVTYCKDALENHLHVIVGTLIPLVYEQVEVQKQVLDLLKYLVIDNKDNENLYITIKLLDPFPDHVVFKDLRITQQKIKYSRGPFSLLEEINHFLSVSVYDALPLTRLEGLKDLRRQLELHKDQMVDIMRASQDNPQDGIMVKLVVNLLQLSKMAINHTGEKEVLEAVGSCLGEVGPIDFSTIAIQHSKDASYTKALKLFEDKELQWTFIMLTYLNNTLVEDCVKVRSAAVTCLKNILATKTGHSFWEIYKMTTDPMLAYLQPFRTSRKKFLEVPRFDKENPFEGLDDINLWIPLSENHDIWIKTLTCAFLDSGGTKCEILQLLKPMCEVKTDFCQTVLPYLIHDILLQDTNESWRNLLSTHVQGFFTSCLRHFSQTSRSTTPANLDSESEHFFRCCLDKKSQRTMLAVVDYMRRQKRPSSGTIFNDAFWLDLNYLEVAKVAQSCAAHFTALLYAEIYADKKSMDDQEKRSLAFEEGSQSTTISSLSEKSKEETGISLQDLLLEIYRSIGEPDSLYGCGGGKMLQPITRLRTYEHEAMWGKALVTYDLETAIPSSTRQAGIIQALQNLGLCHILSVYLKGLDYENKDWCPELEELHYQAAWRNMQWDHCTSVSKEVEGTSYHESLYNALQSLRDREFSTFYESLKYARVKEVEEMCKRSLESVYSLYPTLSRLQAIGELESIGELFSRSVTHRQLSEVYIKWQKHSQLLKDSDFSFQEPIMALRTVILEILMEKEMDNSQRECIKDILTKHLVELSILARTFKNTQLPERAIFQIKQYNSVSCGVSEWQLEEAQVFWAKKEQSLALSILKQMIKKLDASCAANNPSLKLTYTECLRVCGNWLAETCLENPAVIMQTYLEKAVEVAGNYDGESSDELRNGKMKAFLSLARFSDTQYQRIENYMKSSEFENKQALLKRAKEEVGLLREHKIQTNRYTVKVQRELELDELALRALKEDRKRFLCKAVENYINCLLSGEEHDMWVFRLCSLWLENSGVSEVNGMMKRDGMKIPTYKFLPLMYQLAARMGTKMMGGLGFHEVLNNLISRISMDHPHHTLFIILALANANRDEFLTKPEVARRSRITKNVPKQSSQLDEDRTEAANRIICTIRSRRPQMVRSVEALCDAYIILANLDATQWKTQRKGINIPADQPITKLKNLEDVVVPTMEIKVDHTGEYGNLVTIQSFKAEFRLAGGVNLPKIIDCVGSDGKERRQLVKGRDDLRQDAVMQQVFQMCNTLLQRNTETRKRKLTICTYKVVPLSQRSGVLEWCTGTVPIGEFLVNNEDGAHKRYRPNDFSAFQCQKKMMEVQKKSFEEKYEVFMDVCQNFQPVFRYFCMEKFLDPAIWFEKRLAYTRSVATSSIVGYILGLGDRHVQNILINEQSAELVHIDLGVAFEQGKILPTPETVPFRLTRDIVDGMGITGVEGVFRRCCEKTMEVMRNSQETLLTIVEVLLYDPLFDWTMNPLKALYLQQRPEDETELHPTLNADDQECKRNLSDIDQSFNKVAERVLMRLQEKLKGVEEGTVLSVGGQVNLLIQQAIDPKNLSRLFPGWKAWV

IC50 [nM]	SMILES
> 100	COc1ncc(-c2ccc3ncc4c(c3c2)C2(CC2)C(=O)N4CC2COC2)cc1NS(=O)(=O)c1ccccc1 [Example 17, N-(2-Methoxy-5-(3 (oxetan-3-ylmethyl)-2′-oxo-2′,3′-dihydrospiro[cyclopropane-1,1′-pyrrolo[2,3-c]quinolin]-8′-yl)pyridin-3-yl)benzenesulfonamide]
1 to 100	CN(C)CCCOc1ncc(-c2ccc3ncc4c(c3c2)C2(CCC2)C(=O)N4C)cc1NS(=O)(=O)N(C)Cc1ccccc1 [Example 182, N-Benzyl-N-methyl({2-[3-(dimethylamino)propoxy]-5-{3′-methyl-2′-oxo-2′,3′-dihydrospiro[cyclobulane-1,1′-pyrrolo[2,3-c]quinoline]-8′-yl}pyridin-3-yl}amino)sulfonamide]
1 to 100	CN(C)CCCOc1ncc(-c2ccc3ncc4c(c3c2)C2(CCC2)C(=O)N4C)cc1NS(=O)(=O)CCN1C(=O)c2ccccc2C1=O [Example 261, N-(2-(3-(dimethylamino)propoxy)-5-(3′-methyl-2′-oxo-2′,3′-dihydrospiro[cyclobutane-1,1′-pyrrolo[2,3-c]quinolin]-8′-yl)pyridin-3-yl)-2-(1,3-dioxoisoindolin-2-yl)ethane-1-sulfonamide]
> 100	Cc1ccc(S(=O)(=O)Nc2cc(-c3ccc4ncc5c(c4c3)C3(CCC3)C(=O)N5C)cnc2OCCCN2C(C)(C)CCCC2(C)C)cn1 [Example 211, 6-Methyl-N-(5-(3′-methyl-2′-oxo-2′,3′-dihydrospiro[cyclobulane-1,1′-pyrrolo[2,3-c]quinolin]-8′-yl)-2-(3-(2,2,6,6-tetramethylpiperidin-1-yl)propoxy)pyridin-3-yl)pyridine-3-sulfonamide]
1 to 100	CN(CCCOc1ncc(-c2ccc3ncc4c(c3c2)C2(CCC2)C(=O)N4C)cc1NS(C)(=O)=O)CC(F)(F)F [Example 231]
1 to 100	CN(C)CCCOc1ncc(-c2ccc3ncc4c(c3c2)C2(CCC2)C(=O)N4C)cc1NS(=O)(=O)N1CCCc2ccccc21 [Example 139]
1 to 100	CN1CC=C(c2ncc(-c3ccc4ncc5c(c4c3)C3(CCC3)C(=O)N5C)cc2NS(C)(=O)=O)CC1 [Example 276, N-(1′-Methyl-5-(3′-methyl-2-oxo-2′,3′-dihydrospiro[cyclobutane-1,1′-pyrrolo[2,3-c]quinolin]-8′-yl)-1′,2′,3′,6′-tetrahydro-[2,4′-bipyridin]-3-yl)methanesulfonamide]
> 100	CN(C)CCCOc1ncc(-c2ccc3ncc4c(c3c2)C2(CC2)C(=O)N4C)cc1-c1ccccc1 [Example 72, 8′-(6-(3-(Dimethylamino)propoxy)-5-phenylpyridin-3-yl)-3′-methylspiro[cyclopropane-1,1′-pyrrolo[2,3-c]quinolin]-2′(3′-H)-one]

same assay, conditions: pKAP1 in etoposide-treated MCF-7 cells

SMILES	IC50 [nM]
CC(C)NCCOc1ncc(-c2cc3c4c(cnc3cc2F)N(C)C(=O)C42CN(c3nn[nH]n3)C2)cc1NS(C)(=O)=O [Example 550, N-(5-(7′-Fluoro-3′-methyl-2′-oxo-1-(2H-tetrazol-5-yl)-2′,3′-dihydrospiro [azetidine-3,1′-pyrrolo[2,3-c]quinolin]-8′-yl)-2-(2-(isopropylamino)ethoxy)pyridin-3-yl)methanesulfonamide]	> 100
CC(C)NCCOc1ncc(-c2cc3c4c(cnc3cc2F)N(C)C(=O)C42CN(c3ncccn3)C2)cc1NS(C)(=O)=O [Example 551, N-(5-(7′-Fluoro-3′-methyl-2′-oxo-1-(pyrimidin-2-yl)-2′,3′-dihydrospiro[azetidine-3,1′-pyrrolo[2,3-c]quinolin]-8′-y))-2-(2-(isopropylamino)ethoxy)pyridin-3-yl)methanesulfonamide hydrochloride]	> 100
CC(C)NCCOc1ncc(-c2cc3c4c(cnc3cc2F)N(C)C(=O)C42CN(C[C@@H](O)CO)C2)cc1NS(C)(=O)=O [Example 509, (R)-N-(5-(1-(2,3-Dihydroxypropyl)-7′-fluoro-3′-methyl-2′-oxo-2′,3′-dihydrospiro[azetidine-3,1′-pyrrolo[2,3-c]quinolin]-8′-yl)-2-(2-(isopropylamino)ethoxy)pyridin-3-yl)methanesulfonamide]	> 100
CC(C)NCCOc1ncc(-c2cc3c(cc2F)ncc2c3[C@]3(C[C@@H](c4cc[nH]c(=O)c4)C3)C(=O)N2C)cc1NS(C)(=O)=O [Example 445, trans-N-(5-(7′-Fluoro-3′-methyl-2′-oxo-3-(2-oxo-l,2-dihydropyridin-4-yl)-2′,3′-dihydrospiro[cyclobutane-1,1′-pyrrolo[2,3-c]quinolin]-8′-yl)-2-(2-(isopropylamino)ethoxy)pyridin-3-yl)methanesulfonamide]	> 100
CC(=O)N1CCC(N2CC3(C2)C(=O)N(C)c2cnc4cc(F)c(-c5cnc(OCCNC(C)C)c(NS(C)(=O)=O)c5)cc4c23)CC1 [Example 503, N-(5-(1-(1-Acetylpiperidin-4-yl)-7′-fluoro-3′-methyl-2′-oxo-2′,3′-dihydrospiro[azetidine-3,1′-pyrrolo[2,3-c]quinolin]-8′-yl)-2-(2-(isopropylamino)ethoxy)pyridin-3-yl)methanesulfonamide]	> 100
CN(C)CCCOc1c(NS(C)(=O)=O)cc(-c2ccc3ncc4c(c3c2)C2(CCC2)C(=O)N4C)cc1C(N)=O [Example 449, 2-(3-(Dimethylamino)propoxy)-5-(3′-methyl-2′-oxo-2′,3′-dihydrospiro[cyclobutane-1,1′-pyrrolo[2,3-c]quinolin]-8′-yl)-3-(methylsulfonamido)benzamide]	1 to 100
CN(C)CCCOc1c(NS(C)(=O)=O)cc(-c2ccc3ncc4c(c3c2)C2(CCC2)C(=O)N4C)cc1C(=O)O [Example 399, 2-(3-(Dimethylamino)propoxy)-5-(3′-methyl-2′-oxo-2′,3′-dihydrospiro[cyclobutane-1,1′-pyrrolo[2,3-c]quinolin]-8′-yl)-3-(methylsulfonamido)benzoic acid]	> 100
CC(C)NCCOc1ncc(-c2cc3c4c(cnc3cc2F)N(C)C(=O)C42CN(c3nnn(C)n3)C2)cc1NS(C)(=O)=O [Example 552, N-(5-(7′-Fluoro-3′-methyl-1-(2-methyl-2H-tetrazol-5-yl)-2′-oxo-2′,3′-dihydrospiro[azetidine-3,1′-pyrrolo[2,3-c]quinolin]-8′-yl)-2-(2-(isopropylamino)ethoxy)pyridin-3-yl)methanesulfonamide]	> 100

Other lines, results leading:

IC50 [nM]	SMILES
> 100	CC(C)NCCOc1ncc(-c2cc3c(cc2F)ncc2c3[C@]3(C[C@@H](Oc4ccccc4)C3)C(=O)N2C)cc1NS(=O)(=O)N(C)C [Example 403, trans-S′-{5-[(Dimethylsulfamoyl)amino]-6-{2-[(propan-2-ylamino]ethoxy}pyridine-3-yl}-7′-fluoro-3′-methyl-3-phenoxy-2′,3′-dihydrospiro[cyclobutane-1,1′-pyrrolo[2,3-c]quinoline]-2′-one hydrochloride]
> 100	CNC[C@H]1C[C@@]2(C1)C(=O)N(C)c1cnc3cc(F)c(-c4cnc(OCCNC(C)C)c(NS(C)(=O)=O)c4)cc3c12 [Example 455, trans-N-(5-(7′-Fluoro-3′-methyl-3-((methylamino)methyl)-2′-oxo-2′,3′-dihydrospiro[cyclobutane-1,1′-pyrrolo[2,3-c]quinolin]-8′-yl)-2-(2-(isopropylamino)ethoxy)pyridin-3-yl)methanesulfonamide hydrochloride]
1 to 100	CC(C)NCCOc1ncc(-c2cc3c4c(cnc3cc2F)N(C)C(=O)C42CN(C3CC3)C2)cc1NS(C)(=O)=O [Example 496, N-(5-(1-Cyclopropyl-7′-fluoro-3′-methyl-2′-oxo-2′,3′-dihydrospiro[azetidine-3,1′-pyrrolo[2,3-c]quinolin]-8′-yl)-2-(2-(isopropylamino)ethoxy)pyridin-3-yl)methanesulfonamide]
1 to 100	CC(C)NCCOc1ncc(-c2cc3c(cc2F)ncc2c3[C@]3(C[C@@H](OC(C)C)C3)C(=O)N2C)cc1NS(C)(=O)=O [Example 396, trans-N-(5-(7′-Fluoro-3-isopropoxy-3′-methyl-2′-oxo-2′,3′-dihydrospiro[cyclobutane-1,1′-pyrrolo[2,3-c]quinolin]-8′-yl)-2-(2-(isopropylamino)ethoxy)pyridin-3-yl)methanesulfonamide]
1 to 100	CC(C)NCCOc1ncc(-c2cc3c4c(cnc3cc2F)N(C)C(=O)C42CN(C)C2)cc1NS(C)(=O)=O [Example 481, N-(5-(7′-Fluoro-1,3′-dimethyl-2′-oxo-2′,3′-dihydrospiro[azetidine-3,1′-pyrrolo[2,3-c]quinolin]-8′-yl)-2-(2-(isopropylamino)ethoxy)pyridin-3-yl)methanesulfonamide hydrochloride]
1 to 100	CC(C)NCCOc1ncc(-c2cc3c(cc2F)ncc2c3[C@]3(C[C@H](O)C3)C(=O)N2C)cc1NS(C)(=O)=O [Example 381, cis-N-(5-(7′-Fluoro-3-hydroxy-3′-methyl-2′-oxo-2′,3′-dihydrospiro[cyclobutane-1,1′-pyrrolo[2,3-c]quinolin]-8′-yl)-2-(2-(isopropylamino)ethoxy)pyridin-3-yl)methanesulfonamide hydrochloride]
> 100	CN1C(=O)C2(CCC2)c2c1cnc1cc(F)c(-c3cnc(N4CC(N(C)C)C4)c(NS(=O)(=O)CC#N)c3)cc21 [Example 342, 1-Cyano-N-(2-(3-(dimethylamino)azetidin-1-yl)-5-(7′-fluoro-3′-methyl-2′-oxo-2′,3′-dihydrospiro [cyclobutane-1,1′-pyrrolo [2,3-c]quinolin]-8′-yl)pyridin-3-yl)methanesulfonamide hydrochloride]
> 100	CC(C)NCCOc1ncc(-c2cc3c4c(nnc3cc2F)N(C)C(=O)C42CCC2)cc1NS(C)(=O)=O [Example 558, N-(5-(7′-Fluoro-3′-methyl-2′-oxo-2′,3′-dihydrospiro[cyclobutane-1,1′-pyrrolo [2,3-c]cinnolin]-8′-yl)-2-(2-(isopropylamino)ethoxy)pyridin-3-yl)methanesulfonamide]
